Experimental data published in patent EP0007672A1, “Isocyanoalkenes, process and useful intermediates for their preparation, pharmaceutical and fungicidal preparations containing those isocyanoalkenes and the use of the fungicidal preparations in agriculture” (GIST-BROCADES N.V., priority 1978, dated 1980).
Values after ≈ are worked out from the molar mass of the structure shown. Read-outs that look alike come from different tables or passages of the source.

Legend:
Experiment in all cases: MIC (Minimum Inhibitory Concentration)
Type in all cases: cell-based
[1] = test system: Candida albicans
Text: (§1) In addition they may be used for combatting plant diseases, in particular as fungicides. A list of MIC (Minimum Inhibitory Concentration) values for a number of microorganisms is listed herebelow. The figures in the column headings refer to the compounds prepared according to the experimental examples in comparison with the spectrum of 1-[2-(2,4-dichlorophenyl)-2-{(2,4-dichlorophenyl)-methoxy} -ethyl7-1H-imidazole (better known under the name of miconazole, c.f. Merck Index 9th Ed. page 6047) or natamycin (pimaricin, c.f. Merck Index 9th Ed. page 7233).

[2] = test system: Pasteurella multocida; details: read-out: MIC values
Text: as §1

[3] = test system: Trichophyton equinum
Text: as §1

[4] = test system: Trichophyton mentagrophytus
Text: as §1

[5] = test system: Trichophyton quickeaneum; details: Trichophyton quickeaneum A 2040; read-out: MIC values
Text: as §1

[6] = test system: Trichophyton rubrum
Text: as §1

[7] = test system: Trichophyton schoenleinii; details: Trichophyton schoenleinii 435-63; read-out: MIC values
Text: as §1

[8] = test system: Trichophyton soudanese joyeux; details: Trichophyton soudanese joyeux 440-63; read-out: MIC values
Text: as §1

[9] = test system: Trichophyton tonsurans; details: Trichophyton tonsurans 561-50; read-out: MIC values
Text: as §1

[10] = test system: Trichophyton verrucosum
Text: as §1

[11] = test system: Trichophyton violoceum; details: Trichophyton violoceum 442-62; read-out: MIC values
Text: as §1

[12] = Candida albicans A 7, read-out: MIC values
[13] = Candida albicans A 3140, read-out: MIC values
[14] = Candida albicans A 3141, read-out: MIC values
[15] = Candida albicans A 3144, read-out: MIC values
[16] = Candida albicans A 3145, read-out: MIC values
[17] = Candida albicans A 3165, read-out: MIC values
[18] = Candida albicans A 3166, read-out: MIC values
[19] = Candida albicans A 3167, read-out: MIC values
[20] = Candida albicans A 3168, read-out: MIC values
[21] = Candida albicans A 3169, read-out: MIC values
[22] = Candida albicans A 3171, read-out: MIC values
[23] = Candida albicans A 3190, read-out: MIC values
[24] = Candida albicans A 3191, read-out: MIC values
[25] = Candida albicans A 3194, read-out: MIC values
[26] = Candida albicans A 3196, read-out: MIC values
[27] = Trichophyton equinum 182-76, read-out: MIC values
[28] = Trichophyton equinum 856-71, read-out: MIC values
[29] = Trichophyton mentagrophytus 367-68, read-out: MIC values
[30] = Trichophyton mentagrophytus 421-67, read-out: MIC values
[31] = Trichophyton mentagrophytus A 3252, read-out: MIC values
[32] = Trichophyton mentagrophytus R 177, read-out: MIC values
[33] = Trichophyton mentagrophytus R 178, read-out: MIC values
[34] = Trichophyton mentagrophytus RRL 305, read-out: MIC values
[35] = Trichophyton rubrum 218-65, read-out: MIC values
[36] = Trichophyton rubrum 494-62, read-out: MIC values
[37] = Trichophyton rubrum A 810, read-out: MIC values
[38] = Trichophyton verrucosum 134-66, read-out: MIC values
[39] = Trichophyton verrucosum A 2922, read-out: MIC values

| Structure (SMILES) | MIC [1, 12] | MIC [1, 13] | MIC [3, 27] | MIC [3, 28] | MIC [4, 29] | MIC [4, 30] | MIC [4, 31] | MIC [4, 32] | MIC [4, 33] | MIC [4, 34] | MIC [5] | MIC [6, 35] | MIC [6, 36] | MIC [6, 37] | MIC [7] | MIC [8] | MIC [9] | MIC [10, 38] | MIC [10, 39] | MIC [11] | other results |
| --- | --- | --- | --- | --- | --- | --- | --- | --- | --- | --- | --- | --- | --- | --- | --- | --- | --- | --- | --- | --- | --- |
| [C-]#[N+]C(=C(C)CC)S(=O)(=O)c1ccc(C)cc1 [Example 27a, 1-isocyano-2-methyl-1-(4-toluenesulphonyl)-1-butene] | 0.2 µg/mL (≈ 0.802 µM) | 0.8 µg/mL (≈ 3.21 µM) | 0.4 µg/mL (≈ 1.6 µM) | < 0.05 µg/mL | 6 µg/mL (≈ 24.1 µM) | 6 µg/mL (≈ 24.1 µM) | 6 µg/mL (≈ 24.1 µM) | 6 µg/mL (≈ 24.1 µM) | 6 µg/mL (≈ 24.1 µM) | 3 µg/mL (≈ 12 µM) | 0.1 µg/mL (≈ 0.401 µM) | 0.4 µg/mL (≈ 1.6 µM) | 0.4 µg/mL (≈ 1.6 µM) | 0.4 µg/mL (≈ 1.6 µM) | 6 µg/mL (≈ 24.1 µM) | 6 µg/mL (≈ 24.1 µM) | 3 µg/mL (≈ 12 µM) | 0.8 µg/mL (≈ 3.21 µM) | 6 µg/mL (≈ 24.1 µM) | 12.5 µg/mL (≈ 50.1 µM) | MIC [1, 14]: < 0.05 µg/mL; MIC [1, 15]: 0.2 µg/mL (≈ 0.802 µM); MIC [1, 16]: < 0.05 µg/mL; MIC [1, 17]: 0.8 µg/mL (≈ 3.21 µM); MIC [1, 18]: 3 µg/mL (≈ 12 µM); MIC [1, 19]: 0.2 µg/mL (≈ 0.802 µM); MIC [1, 20]: 0.2 µg/mL (≈ 0.802 µM); MIC [1, 21]: 0.1 µg/mL (≈ 0.401 µM); MIC [1, 22]: 0.2 µg/mL (≈ 0.802 µM); MIC [1, 23]: < 0.05 µg/mL; MIC [1, 24]: 0.1 µg/mL (≈ 0.401 µM); MIC [1, 25]: < 0.05 µg/mL; MIC [1, 26]: 0.4 µg/mL (≈ 1.6 µM); MIC ([2]; Pasteurella multocida A 723): 1.5 µg/mL (≈ 6.02 µM) |
| [C-]#[N+]C(C(C)=CC)S(=O)(=O)c1ccc(C)cc1 (stereo not drawn) [Example 27b, 1-isocyano-2-methyl-l-(4-toluenesulphonyl)-2-butene] | 0.4 µg/mL (≈ 1.6 µM) | 0.8 µg/mL (≈ 3.21 µM) | 0.8 µg/mL (≈ 3.21 µM) | 0.4 µg/mL (≈ 1.6 µM) | 3 µg/mL (≈ 12 µM) | 3 µg/mL (≈ 12 µM) | 3 µg/mL (≈ 12 µM) | 6 µg/mL (≈ 24.1 µM) | 6 µg/mL (≈ 24.1 µM) | 3 µg/mL (≈ 12 µM) | 1.5 µg/mL (≈ 6.02 µM) | 1.5 µg/mL (≈ 6.02 µM) | 0.8 µg/mL (≈ 3.21 µM) | 0.8 µg/mL (≈ 3.21 µM) | 6 µg/mL (≈ 24.1 µM) | 6 µg/mL (≈ 24.1 µM) | 3 µg/mL (≈ 12 µM) | 1.5 µg/mL (≈ 6.02 µM) | 6 µg/mL (≈ 24.1 µM) | 6 µg/mL (≈ 24.1 µM) | MIC [1, 14]: < 0.05 µg/mL; MIC [1, 15]: 0.4 µg/mL (≈ 1.6 µM); MIC [1, 16]: < 0.05 µg/mL; MIC [1, 17]: 1.5 µg/mL (≈ 6.02 µM); MIC [1, 18]: 3 µg/mL (≈ 12 µM); MIC [1, 19]: 0.4 µg/mL (≈ 1.6 µM); MIC [1, 20]: 0.4 µg/mL (≈ 1.6 µM); MIC [1, 21]: 0.4 µg/mL (≈ 1.6 µM); MIC [1, 22]: 0.4 µg/mL (≈ 1.6 µM); MIC [1, 23]: 0.1 µg/mL (≈ 0.401 µM); MIC [1, 24]: 0.2 µg/mL (≈ 0.802 µM); MIC [1, 25]: 0.4 µg/mL (≈ 1.6 µM); MIC [1, 26]: 0.4 µg/mL (≈ 1.6 µM); MIC ([2]; Pasteurella multocida A 723): 3 µg/mL (≈ 12 µM) |
| Clc1ccc(COC(Cn2ccnc2)c2ccc(Cl)cc2Cl)c(Cl)c1 (stereo not shown) [miconazole, reference compound] | – | – | 0.4 µg/mL (≈ 0.961 µM) | < 0.05 µg/mL | 3 µg/mL (≈ 7.21 µM) | 0.2 µg/mL (≈ 0.481 µM) | 0.4 µg/mL (≈ 0.961 µM) | 0.4 µg/mL (≈ 0.961 µM) | 25 µg/mL (≈ 60.1 µM) | 0.4 µg/mL (≈ 0.961 µM) | 0.1 µg/mL (≈ 0.24 µM) | 0.1 µg/mL (≈ 0.24 µM) | 0.8 µg/mL (≈ 1.92 µM) | 0.8 µg/mL (≈ 1.92 µM) | 0.2 µg/mL (≈ 0.481 µM) | 1.5 µg/mL (≈ 3.6 µM) | 0.1 µg/mL (≈ 0.24 µM) | 0.8 µg/mL (≈ 1.92 µM) | 0.8 µg/mL (≈ 1.92 µM) | 0.8 µg/mL (≈ 1.92 µM) | MIC ([1]; read-out: MIC values, Candida albicans A 7): 0.2 µg/mL (≈ 0.481 µM); MIC ([1]; read-out: MIC values, Candida albicans A 3140): 0.1 µg/mL (≈ 0.24 µM); MIC ([1]; read-out: MIC values, Candida albicans A 3141): < 0.05 µg/mL; MIC ([1]; read-out: MIC values, Candida albicans A 3144): 0.8 µg/mL (≈ 1.92 µM); MIC ([1]; read-out: MIC values, Candida albicans A 3145): < 0.05 µg/mL; MIC ([1]; read-out: MIC values, Candida albicans A 3165): 0.2 µg/mL (≈ 0.481 µM); MIC ([1]; read-out: MIC values, Candida albicans A 3167): < 0.05 µg/mL; MIC ([1]; read-out: MIC values, Candida albicans A 3168): 100 µg/mL (≈ 240 µM); MIC ([1]; read-out: MIC values, Candida albicans A 3169): 1.5 µg/mL (≈ 3.6 µM); MIC ([1]; read-out: MIC values, Candida albicans A 3171): < 0.05 µg/mL; MIC ([1]; read-out: MIC values, Candida albicans A 3190): < 0.05 µg/mL; MIC ([1]; read-out: MIC values, Candida albicans A 3191): < 0.05 µg/mL; MIC ([1]; read-out: MIC values, Candida albicans A 3194): 0.2 µg/mL (≈ 0.481 µM); MIC ([2]; Pasteurella multocida): > 100 µg/mL |
